ChEMBL document CHEMBL5030539, “Potent and Selective Inhibitors of the Epidermal Growth Factor Receptor to Overcome C797S-Mediated Resistance” (J Med Chem, 2021)
In brackets after ≈: the same amount, converted by molar mass. Activity calls are given as the source filed them. No cut-off for these calls is given here.

Experiments:
[1] = Inhibition of EGFR Ex19del/T790M/C797S triple mutant (unknown origin) incubated for 15 min measured by -CisBio HTRF KinEASE TK; parameters: species or system Homo sapiens
[2] = organism: Homo sapiens; test: Inhibition of EGFR Ex19del/T790M/C797S triple mutant (unknown origin) assessed as enzyme residence time measured by -biacore direct binding assay
[3] = target: Epidermal growth factor receptor (Homo sapiens, UniProt P00533); test: Inhibition of Wild type EGFR (unknown origin)
[4] = Inhibition of EGFR Ex19del/T790M/C797S triple mutant (unknown origin) expressed in human NCI-H1975 cells assessed as protein phosphorylation measured after 2 hrs by ELISA; assay type: cell-based; conditions: NCI-H1975, 2 h
[5] = Inhibition of wild type EFGR expressed in human LoVo cell line assessed as inhibition of EGF-stimulated EGFR phosphorylation potency measured after 2 hrs by HRTF assay; assay type: functional
[6] = Aqueous solubility of the compound at pH 7.4; assay type: physicochemical; conditions: buffer
[7] = Plasma protein binding in human plasma assessed as unbound fraction; assay type: ADME, cell-free
[8] = Lipophilicity, log D of the compound at pH 7.4; assay type: physicochemical; conditions: buffer
[9] = Intrinsic permeability of compound across apical to basolateral side in human Caco-2 cells; assay type: ADME, cell-based; conditions: read-out: permeability
[10] = Intrinsic clearance in human liver microsomes; assay type: ADME, Microsome; conditions: read-out: CLH
[11] = Intrinsic clearance in rat hepatocyte measured per 10^6 cells; assay type: ADME, tissue-based; conditions: hepatocytes
[12] = Inhibition of EGFR Exon19Del/C797S double mutant (unknown origin) by biochemical assay; parameters: species or system Homo sapiens
[13] = Inhibition of EFGR Ex19del (unknown origin) expressed in human PC-9 cells assessed as inhibition of EGF-induced phosphorylation measured after 2 hrs by ELISA; assay type: cell-based; conditions: PC-9, 2 h
[14] = Inhibition of EFGR Ex19del/T790M/C797S triple mutant (unknown origin) expressed in human PC-9-VanR cells assessed as inhibition of EGF-induced phosphorylation measured after 2 hrs by ELISA; assay type: cell-based; conditions: PC-9, 2 h
[15] = Dissociation constant, pKa of compound; assay type: physicochemical
[16] = test system: NCI-H1975; test: Antitumour activity against human NCI-H1975 cells harboring EGFR L858R/T790M double mutant xenografted in NSG mouse model assessed as tumour growth inhibition at 50 mg/kg, sc bid for 14 days relative to control; assay type: functional; conditions: 336 h, time 14 day, read-out: TGI
[17] = Toxicity in mouse NSG assessed as change in body weight at 50 mg/kg, sc bid for 14 to 21 days; assay type: organism-based; conditions: in vivo, time 14-21 day
[18] = test system: PC-9; test: Antitumour activity against human PC-9-VanR cells harboring EGFR Ex19del/T790M/C797S triple mutant xenografted in NSG mouse model assessed as tumour growth inhibition at 50 mg/kg, sc bid for 21 days; assay type: functional; conditions: PC-9, sc, 504 h, time 21 day, read-out: TGI
[19] = test system: PC-9; test: In vivo inhibition of EGFR in human PC-9-VanR cells harboring EGFR Ex19del/T790M/C797S triple mutant xenografted in NSG mouse model assessed as inhibition of EGFR phosphorylation in tumor at 50 mg/kg, sc bid for 21 days by immunoblot analysis; assay type: functional, organism-based; conditions: time 21.0 day
[20] = test system: PC-9; test: In vivo inhibition of EGFR in human PC-9-VanR cells harboring EGFR Ex19del/T790M/C797S triple mutant xenografted in NSG mouse model assessed as inhibition of ERK phosphorylation in tumor at 50 mg/kg, sc bid for 21 days by immunoblot analysis; assay type: functional, organism-based; conditions: time 21.0 day
[21] = test system: PC-9; test: In vivo inhibition of EGFR in human PC-9-VanR cells harboring EGFR Ex19del/T790M/C797S triple mutant xenografted in NSG mouse model assessed as inhibition of Akt phosphorylation in tumor at 50 mg/kg, sc bid for 21 days by immunoblot analysis; assay type: functional, organism-based; conditions: time 21.0 day
[22] = test system: PC-9; test: In vivo inhibition of EGFR in human PC-9-VanR cells harboring EGFR Ex19del/T790M/C797S triple mutant xenografted in NSG mouse model assessed as inhibition of S6 phosphorylation in tumor at 50 mg/kg, sc bid for 21 days by immunoblot analysis; assay type: functional, organism-based; conditions: time 21.0 day
[23] = target: Epidermal growth factor receptor (Homo sapiens, UniProt P00533, L858R/T790M)
Chain of Epidermal growth factor receptor (Homo sapiens, UniProt P00533, L858R/T790M) (P00533 25-1210 T790M/L858R limits assumed): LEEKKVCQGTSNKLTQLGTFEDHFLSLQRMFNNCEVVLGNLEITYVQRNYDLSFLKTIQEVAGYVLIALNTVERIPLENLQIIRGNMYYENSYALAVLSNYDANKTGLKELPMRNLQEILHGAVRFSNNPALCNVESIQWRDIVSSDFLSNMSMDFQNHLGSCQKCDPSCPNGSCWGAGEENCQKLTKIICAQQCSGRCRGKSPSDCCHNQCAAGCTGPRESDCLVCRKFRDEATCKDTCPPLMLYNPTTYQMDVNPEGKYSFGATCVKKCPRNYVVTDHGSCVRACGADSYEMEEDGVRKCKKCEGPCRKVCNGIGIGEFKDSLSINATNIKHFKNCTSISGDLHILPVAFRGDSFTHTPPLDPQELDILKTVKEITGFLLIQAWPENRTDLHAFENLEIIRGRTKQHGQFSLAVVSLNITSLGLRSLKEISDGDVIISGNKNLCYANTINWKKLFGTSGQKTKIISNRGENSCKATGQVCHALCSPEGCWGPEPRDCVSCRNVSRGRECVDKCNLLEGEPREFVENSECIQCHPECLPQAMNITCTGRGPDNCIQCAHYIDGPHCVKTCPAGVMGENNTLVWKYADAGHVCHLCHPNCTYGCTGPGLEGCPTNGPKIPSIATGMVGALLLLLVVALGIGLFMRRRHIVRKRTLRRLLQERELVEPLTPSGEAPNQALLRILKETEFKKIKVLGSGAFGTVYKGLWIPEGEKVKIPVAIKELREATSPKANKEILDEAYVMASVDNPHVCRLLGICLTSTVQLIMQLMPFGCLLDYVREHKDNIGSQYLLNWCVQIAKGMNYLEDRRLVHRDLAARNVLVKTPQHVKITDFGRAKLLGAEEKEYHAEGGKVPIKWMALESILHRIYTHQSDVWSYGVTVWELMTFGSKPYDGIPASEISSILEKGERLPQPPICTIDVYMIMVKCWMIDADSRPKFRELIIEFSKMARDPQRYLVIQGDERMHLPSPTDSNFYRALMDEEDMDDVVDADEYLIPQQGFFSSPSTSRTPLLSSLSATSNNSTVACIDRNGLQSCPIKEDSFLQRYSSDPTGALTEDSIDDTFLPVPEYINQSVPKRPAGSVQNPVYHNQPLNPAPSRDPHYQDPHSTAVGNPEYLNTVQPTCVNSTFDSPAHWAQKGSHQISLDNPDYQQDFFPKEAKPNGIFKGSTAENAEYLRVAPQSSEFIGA

Chain of Epidermal growth factor receptor (Homo sapiens, UniProt P00533) (P00533 whole entry): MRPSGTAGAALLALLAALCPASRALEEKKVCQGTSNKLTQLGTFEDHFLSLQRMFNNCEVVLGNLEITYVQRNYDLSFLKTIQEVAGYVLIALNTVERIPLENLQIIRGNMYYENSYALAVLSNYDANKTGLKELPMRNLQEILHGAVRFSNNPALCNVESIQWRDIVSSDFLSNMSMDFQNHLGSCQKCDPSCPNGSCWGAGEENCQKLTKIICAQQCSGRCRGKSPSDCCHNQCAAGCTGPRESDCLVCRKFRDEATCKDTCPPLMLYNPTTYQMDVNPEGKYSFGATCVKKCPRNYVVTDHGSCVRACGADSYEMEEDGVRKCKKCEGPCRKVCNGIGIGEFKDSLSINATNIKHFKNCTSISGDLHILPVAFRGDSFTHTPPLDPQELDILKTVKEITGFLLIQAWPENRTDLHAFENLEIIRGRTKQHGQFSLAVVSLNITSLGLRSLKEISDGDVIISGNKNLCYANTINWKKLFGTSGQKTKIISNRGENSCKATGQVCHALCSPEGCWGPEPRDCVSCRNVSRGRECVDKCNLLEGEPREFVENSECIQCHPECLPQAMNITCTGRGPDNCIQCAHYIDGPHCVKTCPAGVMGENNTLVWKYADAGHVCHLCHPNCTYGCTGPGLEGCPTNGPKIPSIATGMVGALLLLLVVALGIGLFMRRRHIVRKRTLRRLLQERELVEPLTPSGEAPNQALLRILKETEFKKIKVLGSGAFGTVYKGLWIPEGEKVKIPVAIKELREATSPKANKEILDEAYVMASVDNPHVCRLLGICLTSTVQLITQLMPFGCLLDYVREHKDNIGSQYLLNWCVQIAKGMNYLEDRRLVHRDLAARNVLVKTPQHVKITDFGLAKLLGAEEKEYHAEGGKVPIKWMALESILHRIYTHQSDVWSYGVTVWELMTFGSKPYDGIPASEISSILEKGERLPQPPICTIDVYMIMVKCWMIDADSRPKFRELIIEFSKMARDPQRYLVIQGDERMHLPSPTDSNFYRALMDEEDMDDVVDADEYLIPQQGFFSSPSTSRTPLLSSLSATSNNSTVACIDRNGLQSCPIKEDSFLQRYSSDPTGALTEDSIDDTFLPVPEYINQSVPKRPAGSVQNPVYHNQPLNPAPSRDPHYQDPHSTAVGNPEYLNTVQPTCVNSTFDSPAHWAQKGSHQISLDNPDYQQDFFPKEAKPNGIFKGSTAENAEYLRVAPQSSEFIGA

Row | IC50 [1] | TIME [2] | IC50 [3] | IC50 [4] | IC50 [5] | solubility [6] | fraction unbound ([7]; read-out: Fu) | logD [8] | Papp A→B at 10 µM [9] | microsomal CLint [10] | CLH [11] | SMILES | further results
1 | 0.0005 µM | 2.3 h | 0.0009 µM | 2.01 µM | 0.373 µM | > 1000 µM | 0.19 | 1.8 | 2.4 nm/s | 23 µL/min/mg | < 1 uL/min/10^6 cells | COc1cc(N2CCC(N(C)C)CC2)c(-c2cn[nH]c2)cc1Nc1ncc(Cl)c(Nc2ccccc2P(C)(C)=O)n1 | 
2 | 0.007 µM | 0.333 h |  | 0.459 µM | 2.03 µM | > 1190 µM |  | 2.3 | 47 nm/s | 3.1 µL/min/mg |  | COc1cc(N2CCC(N3CCN(C)CC3)CC2)ccc1Nc1ncc(Cl)c(Nc2ccccc2P(C)(C)=O)n1 [BRIGATINIB] | fraction unbound [7]: 0.155; IC50 [12]: 0.132 µM; IC50 [13]: 0.357 µM; IC50 [14]: 2.68 µM
3 | 0.0003 µM | 2.2 h |  | 0.498 µM | 0.726 µM | > 1000 µM | 0.1 | 2.5 |  | 28 µL/min/mg |  | COc1cc(N2CCC(N3CCN(C)CC3)CC2)c(-c2cn[nH]c2)cc1Nc1ncc(Cl)c(Nc2ccccc2P(C)(C)=O)n1 | 
4 | 0.00023 µM | 2.65 h | 0.0033 µM | 0.241 µM | 0.079 µM | > 1000 µM | 0.243 | 2.4 | 26 nm/s | 24 µL/min/mg | < 1 uL/min/10^6 cells | COc1cc(N2CCN(C)CC2)c(-c2cnn(C)c2)cc1Nc1ncc(Cl)c(Nc2ccccc2P(C)(C)=O)n1 | pKa [15]: 7.6
5 |  | 3.97 h |  | 1.09 µM | 2.14 µM | < 3 µM | 0.009 | 3.4 | 180 nm/s | 28 µL/min/mg |  | COc1cc(N2CCOCC2)c(-c2cn[nH]c2)cc1Nc1ncc(Cl)c(Nc2ccccc2P(C)(C)=O)n1 | 
6 | 0.0002 µM | 1.37 h | 0.0044 µM | 0.122 µM | 1.18 µM | 8.7 µM (≈ 4.94 µg/mL) | 0.07 | 3 | 610 nm/s | 49 µL/min/mg | 16 uL/min/10^6 cells | COc1cc(N2CCOCC2)c(-c2cnn(C)c2)cc1Nc1ncc(Cl)c(Nc2ccccc2P(C)(C)=O)n1 | inhibition in vivo at 50 mg/kg [16]: 87%; Activity [17]: Toxic; IC50 [13]: 0.052 µM; IC50 [14]: 0.739 µM; inhibition in vivo at 50 mg/kg [18]: 52%; Activity [19]: Active; Activity [20]: Active; Activity [21]: Active; Activity [22]: Active; IC50 [23]: 0.032 µM
7 |  |  |  |  |  |  |  |  |  |  |  | C=CC(=O)Nc1cc(Nc2nccc(-c3cn(C)c4ccccc34)n2)c(OC)cc1N(C)CCN(C)C [OSIMERTINIB] | IC50 [12]: 0.044 µM
8 | 0.0002 µM | 1.83 h | 0.0024 µM | 0.139 µM |  |  | 0.041 | 4 | 780 nm/s | 71 µL/min/mg | 67 uL/min/10^6 cells | CCP(=O)(CC)c1ccccc1Nc1nc(Nc2cc(-c3cnn(C)c3)c(N3CCOCC3)cc2OC)ncc1Cl | 
9 | 0.00019 µM | 1.08 h | 0.0017 µM |  | 0.101 µM | > 1000 µM | 0.272 | 1.9 | < 2.4 nm/s | 31 µL/min/mg | < 1 uL/min/10^6 cells | COc1cc(N2CCC(N(C)C)CC2)c(-c2cnn(C)c2)cc1Nc1ncc(Cl)c(Nc2ccccc2P(C)(C)=O)n1 | pKa [15]: 9.4
10 | 0.00032 µM | 2.52 h | 0.00092 µM | 0.091 µM | 0.14 µM | > 1000 µM | 0.228 | 2.7 | < 6.2 nm/s | 21 µL/min/mg | < 1 uL/min/10^6 cells | COc1cc(N2CCC(N3CCN(C)CC3)CC2)c(-c2cnn(C)c2)cc1Nc1ncc(Cl)c(Nc2ccccc2P(C)(C)=O)n1 | 
